Assay results from US20140248361A1, “HERBAL EXTRACT COMPOSITION AND A PROCESS THEREOF” (PRASAN SOLUTIONS (INDIA) PVT LTD, priority 2012, published 2014).

Assays:
[1] = Estimation of shelf life of palm oil (Rancimat temperature extrapolation); conditions: 200 ppm
Protocol: (§2) This is an aid for estimating the shelf life of oils and fats. The extrapolation makes use of the relationship between the measured induction time and the temperature given by van't Hoff's law. Several measurements are made at different temperatures and then extrapolated to the storage temperature. The values so obtained allow estimation of the storage stability of the oil or fat containing PRESOL.
(§3) The shelf life is calculated using Rancimat shelf life calculator.

[2] = Estimation of shelf life of sunflower oil (Rancimat temperature extrapolation); conditions: 200 ppm
Protocol: as §2, §3

[3] = Peroxide value of palm oil on storage
Protocol: (§4) The shelf life of oil is studied by carrying out chemical analysis, which include studying peroxide value (represents extent of primary oxidation), Para-anisidine value (represents extent of secondary oxidation) and totox value (reflects total oxidation of oil). These parameters are determined for 1 kg of untreated oil and treated oil at every 15 days interval for samples stored at ambient temperature and at every 7 days interval for samples stored at 50° C. The treated oil being, the oil upon addition of 200 ppm of TBHQ (sample-A), 200 ppm of BHA (sample-B), 200 ppm and 500 ppm of pulverized green tea extract with 90% polyphenol (sample-C), 200 ppm and 500 ppm of rosemary extract (sample-D), 200 ppm and 500 ppm of green tea extract after cryogenic grinding (sample-E), 200 ppm and 500 ppm of crude green tea extract (sample-F) and PRESOL at 200 ppm and 500 ppm. The untreated oil is the control sample without any antioxidant.
(§5) The threshold limit for per oxide value under which oil can be used for safe consumption is 10 meq of O2/Kg oil. Similarly, the threshold limit of para-anisidine value and Totox value is 10 and 30, respectively.

[4] = Para-anisidine value of palm oil on storage
Protocol: as §4, §5

[5] = Totox value of palm oil on storage; conditions: ambient temperature
Protocol: as §4, §5

Shelf life of canola oil = conditions: 200 ppm
Protocol: D. Determination of Shelf Life of Canola Oil in the Presence of PRESOL • Shelf life of canola oil is analyzed upon adding 200 ppm of TBHQ (sample-A), BHA (sample-B), green tea extract with 90% polyphenol (sample-C), rosemary extract (sample-D), green tea extract after cryogenic grinding (sample-E), and PRESOL, respectively to canola oil.

[6] = Frying cycle analysis of palm oil (total polar compounds)
Protocol: (§1) Palm oil and sunflower oil with antioxidants added to it are obtained from a local refinery. Frying studies are carried out with control oil and by adding TBHQ (Sample A), BHA (Sample B), GT Pulverized (Sample C), ROS (Sample D), GT Cryo grinded (Sample E), GT Crude Extract (Sample F) and PRESOL, respectively to the oils. Experiments are carried out a concentration of 200 ppm and 500 ppm. Fresh potatoes of less reduced sugar content variety are used throughout the experiment which is purchased form a local supermarket. Oil samples are withdrawn from the fryer at the end of every day and stored at −4° C. until it is tested for quality parameters viz, total polar compounds. Polar compounds present in oil and fats are measured by column chromatography using standard method, ES ISO 8420:2012.

[7] = Frying cycle analysis of sunflower oil (total polar compounds)
Protocol: as §1

[8] = Effect of particle size on antioxidant activity (Rancimat induction time) in palm oil; conditions: 200 ppm in palm oil; Rancimat 120° C.
Protocol: (§6) Effect of particle size analysis on antioxidant activity is analysed with the help of Rancimat (Metrohm 743) which gives oxidative stability index based on the induction time (h). Rancimat analysis is carried out at two different temperature in order to set relationship between induction time and temperature of the studies.
(§7) In this, we have analyzed the particle size of samples with the help of Particle Size Analyzer (Microtrac, S3500) and its antioxidant activity with the help of Rancimat (Metrohm 743).

[9] = Synergism of TBHQ and PRESOL combination (Rancimat) in palm oil
Protocol: Synergism of TBHQ and PRESOL is analyzed in palm oil. If the frying industry is considered, synthetic antioxidant TBHQ is being added to the oils. […] In order to overcome this limitation, TBHQ is fortified with PRESOL and added to vegetable oils in order to increase the frying cycles which ultimately increases the shelf life of end products. […] The below table 25 illustrates all the combination of fortification of TBHQ and PRESOL used in palm oil to illustrate maximum activity of fortified combination. Synergism is calculated based on the below equation: [formula]

[10] = Effect of particle size on antioxidant activity (Rancimat induction time) in sunflower oil; conditions: 200 ppm in sunflower oil; Rancimat 100° C.
Protocol: as §6, §7

[11] = Oil stability index (Rancimat) of palm oil; conditions: 200 ppm
Protocol: (§8) As used herein, ‘Oil Stability Index (OSI)’ is an American Oil Chemists Society (AOCS) approved method that determines the relative resistance of fat and oil samples to oxidation, which is defined by the following equation—
(§9) The oil stability index is determined using the Metrohm's Rancimat (Metrohm 743 Rancimat).
4.0 g of palm oil is weighed into the reaction vessel. The reaction vessel filled with oil is placed in a heating block. The temperature of the block is maintained at 100° C., 120° C. and 140° C., respectively. The oil is heated at the said temperatures, followed by passing air at a flow rate of 20 L/h. Flowing of air through the oil produces peroxides during primary oxidation and organic acids having low molecular weight, aldehydes and ketones with typical rancid odor during the secondary oxidation phase. These compounds are conveyed by the air flow into measurement vessel containing distilled water where conductivity is being checked continuously by sensor.

[12] = Oil stability index (Rancimat) of sunflower oil; conditions: 200 ppm
Protocol: as §8, §9
4.0 g of sunflower oil is weighed into the reaction vessel. The reaction vessel filled with oil is placed in a heating block. The temperature of the block is maintained at 80° C., 100° C. and 120° C., respectively. The oil is heated at the said temperatures, followed by passing air at a flow rate of 20 L/h. Flowing of air through the oil produces peroxides during primary oxidation and organic acids having low molecular weight, aldehydes and ketones with typical rancid odor during the secondary oxidation phase. These compounds are conveyed by the air flow into measurement vessel containing distilled water where conductivity is being checked continuously by sensor.

[13] = ambient temperature, day 0, 200 ppm
[14] = ambient temperature, day 15, 200 ppm
[15] = ambient temperature, day 30, 200 ppm
[16] = ambient temperature, day 45, 200 ppm
[17] = ambient temperature, day 60, 200 ppm
[18] = ambient temperature, day 75, 200 ppm
[19] = ambient temperature, day 90, 200 ppm
[20] = ambient temperature, day 105, 200 ppm
[21] = ambient temperature, day 120, 200 ppm
[22] = ambient temperature, day 135, 200 ppm
[23] = ambient temperature, day 150, 200 ppm
[24] = ambient temperature, day 165, 200 ppm
[25] = ambient temperature, day 180, 200 ppm

Structure (SMILES): CC(C)(C)c1cc(O)ccc1O [Sample A, tertiary butyl hydroquinone]
- Shelf Life (days) at 30° C. [1]: 617.0 days
- Shelf Life (days) at 30° C. [2]: 171.0 days
- Peroxide value ([3]; 50° C., day 0, 200 ppm): 0.482
- Peroxide value ([3]; 50° C., day 7, 200 ppm): 1.309
- Peroxide value ([3]; 50° C., day 15, 200 ppm): 1.836
- Peroxide value ([3]; 50° C., day 22, 200 ppm): 1.887
- Peroxide value ([3]; 50° C., day 30, 200 ppm): 2.005
- Peroxide value ([3]; 50° C., day 37, 200 ppm): 3.074
- Peroxide value ([3]; 50° C., day 45, 200 ppm): 3.686
- Peroxide value ([3]; 50° C., day 52, 200 ppm): 4.102
- Peroxide value ([3]; 50° C., day 60, 200 ppm): 4.491
- Peroxide value ([3]; 50° C., day 67, 200 ppm): 4.75
- Peroxide value ([3]; 50° C., day 75, 200 ppm): 4.893
- Peroxide value ([3]; 50° C., day 82, 200 ppm): 5.209
- Peroxide value ([3]; 50° C., day 90, 200 ppm): 5.395
- Peroxide value [3, 13]: 0.465
- Peroxide value [3, 14]: 0.762
- Peroxide value [3, 15]: 1.417
- Peroxide value [3, 16]: 1.558
- Peroxide value [3, 17]: 1.771
- Peroxide value [3, 18]: 1.855
- Peroxide value [3, 19]: 1.814
- Peroxide value [3, 20]: 1.88
- Peroxide value [3, 21]: 1.91
- Peroxide value [3, 22]: 1.951
- Peroxide value [3, 23]: 2.222
- Peroxide value [3, 24]: 2.31
- Peroxide value [3, 25]: 2.403
- Para-anisidine value ([4]; 50° C., day 0, 200 ppm): 2.69
- Para-anisidine value ([4]; 50° C., day 7, 200 ppm): 3.062
- Para-anisidine value ([4]; 50° C., day 15, 200 ppm): 3.296
- Para-anisidine value ([4]; 50° C., day 22, 200 ppm): 3.395
- Para-anisidine value ([4]; 50° C., day 30, 200 ppm): 3.74
- Para-anisidine value ([4]; 50° C., day 37, 200 ppm): 4.052
- Para-anisidine value ([4]; 50° C., day 45, 200 ppm): 4.209
- Para-anisidine value ([4]; 50° C., day 52, 200 ppm): 4.685
- Para-anisidine value ([4]; 50° C., day 60, 200 ppm): 5.091
- Para-anisidine value ([4]; 50° C., day 67, 200 ppm): 5.208
- Para-anisidine value ([4]; 50° C., day 75, 200 ppm): 5.514
- Para-anisidine value ([4]; 50° C., day 82, 200 ppm): 5.601
- Para-anisidine value ([4]; 50° C., day 90, 200 ppm): 5.827
- Para-anisidine value [4, 13]: 2.566
- Para-anisidine value [4, 14]: 3.062
- Para-anisidine value [4, 15]: 3.045
- Para-anisidine value [4, 16]: 3.113
- Para-anisidine value [4, 17]: 2.615
- Para-anisidine value [4, 18]: 2.731
- Para-anisidine value [4, 19]: 2.772
- Para-anisidine value [4, 20]: 3.217
- Para-anisidine value [4, 21]: 3.303
- Para-anisidine value [4, 22]: 3.438
- Para-anisidine value [4, 23]: 3.473
- Para-anisidine value [4, 24]: 3.639
- Para-anisidine value [4, 25]: 3.808
- Totox value ([5]; day 0, 200 ppm): 3.497
- Totox value ([5]; day 15, 200 ppm): 4.585
- Totox value ([5]; day 30, 200 ppm): 5.879
- Totox value ([5]; day 45, 200 ppm): 6.228
- Totox value ([5]; day 60, 200 ppm): 6.157
- Totox value ([5]; day 75, 200 ppm): 6.441
- Totox value ([5]; day 90, 200 ppm): 6.400
- Totox value ([5]; day 105, 200 ppm): 6.976
- Totox value ([5]; day 120, 200 ppm): 7.122
- Totox value ([5]; day 135, 200 ppm): 7.339
- Totox value ([5]; day 150, 200 ppm): 7.916
- Totox value ([5]; day 165, 200 ppm): 8.258
- Totox value ([5]; day 180, 200 ppm): 8.614
- Shelf Life (No. Of Days) (Shelf life of canola oil): 181 days
- frying cycle after which threshold limit for total polar compounds is crossed ([6]; palm oil): 40 cycle
- Number of batches fried ([6]; palm oil (PO), potato chips, 200 ppm): 40 batches
- Total Polar compounds of sunflower oil ([7]; 200 ppm, frying cycle 0): 3.746
- Total Polar compounds of sunflower oil ([7]; 200 ppm, frying cycle 8): 6.375
- Total Polar compounds of sunflower oil ([7]; 200 ppm, frying cycle 16): 13.632
- Total Polar compounds of sunflower oil ([7]; 200 ppm, frying cycle 24): 18.505
- Total Polar compounds of sunflower oil ([7]; 200 ppm, frying cycle 32): 23.123
- Total Polar compounds of sunflower oil ([7]; 200 ppm, frying cycle 40): 28.648
- frying cycle after which threshold limit for total polar compounds is crossed ([7]; sunflower oil): 40 cycle
- Number of batches fried ([7]; sunflower oil (SFO), potato chips, 200 ppm): 40 batches
- Induction Period (h) of PO at 120° C. [8]: 20.93 h
- Increase in OSI (%) ([9]; 50 ppm alone): 5.12%
- Induction Time (H) at 120 C. ([9]; 50 ppm alone): 9.57 H
- OSI ([9]; 50 ppm alone): 1.054
- increase in induction time as compared to control (X-C) ([9]; 50 ppm alone): 0.49
- Increase in OSI (%) ([9]; 100 ppm alone): 17.53%
- Induction Time (H) at 120 C. ([9]; 100 ppm alone): 11.01 H
- OSI ([9]; 100 ppm alone): 1.21
- increase in induction time as compared to control (X-C) ([9]; 100 ppm alone): 1.93
- Increase in OSI (%) ([9]; 200 ppm alone): 36.24%
- Induction Time (H) at 120 C. ([9]; 200 ppm alone): 14.24 H
- OSI ([9]; 200 ppm alone): 1.57
- increase in induction time as compared to control (X-C) ([9]; 200 ppm alone): 5.16
- Induction Period (h) of SFO 100° C. [10]: 26.82 h
- Induction Time ([11]; 100° C.): 95.76 h
- Oxidative Stability Index (OSI) ([11]; 100° C.): 2.30
- Induction Time ([11]; 120° C.): 20.93 h
- Oxidative Stability Index (OSI) ([11]; 120° C.): 2.17
- Induction Time ([11]; 140° C.): 5.26 h
- Oxidative Stability Index (OSI) ([11]; 140° C.): 2.15
- Induction Time ([12]; 80° C.): 109.76 h
- Oxidative Stability Index (OSI) ([12]; 80° C.): 3.01
- Induction Time ([12]; 100° C.): 26.82 h
- Oxidative Stability Index (OSI) ([12]; 100° C.): 2.88
- Induction Time ([12]; 120° C.): 6.13 h
- Oxidative Stability Index (OSI) ([12]; 120° C.): 2.61
